Results as given in patent US5047413A (priority 1987, dated 1991).
Converted amounts (≈) assume the structure as drawn. “Also recorded” adds a separate entry of the source. Where two headings read alike, the source gives them in different places.

Assays:
[1] = M. Blau, U. Retzke, Zbl. Gynakol. 100 (1984); cited from earlier work
urinary bladder = details: literature, background; cited from earlier work
guinea pig ileum = assay: tissue or blood
guinea pig taenia coli = assay: tissue or blood; details: Cavia porcellus
[2] = tested on: guinea-pig urinary bladder muscle; assay: tissue or blood

With `CCCOC(C(=O)OC1CCN(C)CC1)(c1ccccc1)c1ccccc1` [propiverine, 1-methyl-4-piperidyl α,α-diphenyl-α-(n-propoxy)acetate] as the compound, how does the “effect on blood pressure (in words)” value [1] read?
Its value is “lowering of the blood pressure”.

What about the “side effects (in words)” value (urinary bladder) of the same compound?
Its value is “not amenable to general use because of certain side effects”.

What about the “therapeutic utility for the tone of the urinary bladder (in words)” value (urinary bladder) of the same compound?
The value was “has shown therapeutic utility; also recorded: insufficiently effective in some patients”.

What about the “predominating effect, neurotropic/spasmolytic versus myotropic/spasmolytic (in words)” value (guinea pig ileum) of the same compound?
The value was “the undesired myotropic/spasmolytic effect predominates”.

What about the EC50 (guinea pig ileum; Cavia porcellus, read-out: Neurotropic/spasmolytic activity, Ileum, Carbachol 50 ng/ml) of the same compound?
Its EC50 is 0.059 µg/mL (≈ 0.161 µM).

And the EC50 (guinea pig taenia coli; read-out: ED50 (myotropic/spasmolytic activity))?
The EC50 was 2 µg/mL (≈ 5.44 µM).

And the EC50 (guinea pig taenia coli; read-out: Myotropic/spasmolytic activity, Taenia coli, Barium 200 μg/ml (EC 50))?
Its EC50 is 12 µg/mL (≈ 32.7 µM).

What about the “myotropic/spasmolytic activity compared with papaverine (in words)” value [2] of the same compound?
The value was “reaches the potency of papaverine”.

And the EC50 ([2]; Cavia porcellus, read-out: ED50 (myotropic/spasmolytic activity))?
Its EC50 is 53 µg/mL (≈ 144 µM).
